Experimental data taken from patent US20120142584A1, “NOVEL TRANSPORTER CONSTRUCTS AND TRANSPORTER CARGO CONJUGATE MOLECULES” (priority 2008, published 2012).

Experiment: digestion of TAT derived transporter constructs in 10% and 50% human serum at 37° C.
Conditions: 10% and 50% human serum at 37° C. until complete degradation
Procedure: The table shown in FIG. 2 illustrates the amino acid sequences of these TAT derived transporter constructs with respect to their molecular weight (Mw) and pl-values (see FIG. 2). • The digestion was carried out in 10% and 50% human serum at 37° C. until complete degradation of these TAT derived transporters construct.

N=C(N)NCCC[C@H](NC(=O)[C@H](CCCNC(=N)N)NC(=O)[C@H](CCCNC(=N)N)NC(=O)[C@H](CCC(N)=O)NC(=O)[C@H](CCCNC(=N)N)NC(=O)[C@H](CCCNC(=N)N)NC(=O)[C@H](CCCCN)NC(=O)[C@H](CCCCN)NC(=O)[C@@H](N)CCCNC(=N)N)C(=O)O [L-TAT]
degradation in human serum: degraded too early
